Key:
[1] = tested on: mouse cerebellar granular neurons; assay: Neurite outgrowth assay; format: cell-based; conditions: 30 μg/ml peptide; for average neurite length: 24 h in culture
Protocol: For neurite outgrowth assays, chick Ng-CAM was purified from chick brain using an antibody-based affinity column according to techniques well known in the art. The anti-Ng-CAM antibody was antibody 8D9 (Developmental Studies Hybridoma Bank, University of Iowa). Then purified chick Ng-CAM (50 μg/ml) or mouse laminin (Invitrogen, 100 μg/ml) was spotted on a 35 mm plastic culture dish at room temperature (RT) for 1 hr. After washing with PBS, the plastic surface was blocked with 1% Bovine Serum Albumin in phosphate buffered saline (13SA/PBS) at RT. Negative control dishes were coated with 1% Bovine Serum Albumin in phosphate buffered saline (BSA/PBS) at RT.
Cerebellar cells were prepared from postnatal day 4 (P4) mouse by trypsinization followed by trituration. Postnatal day 4 (P4) mouse cerebellum was minced in Calcium/Magnesium-free phosphate buffer (Ca/Mg-free PBS). Minced cerebellum was then treated with 0.05% Trypsin (Gibco) in Ca/Mg-free PBS for 15 minutes at 37° C. Trypsinization was halted by addition of 10% Fetal Calf Serum (Hyclone). Trypsinized cells were then triturated 5 times with a fire-polished Pasteur pipette to dissociate the cells. The remaining cell clumps were allowed to settle, and the suspended cells were plated and maintained for use in the neurite outgrowth assays.
Cultured cerebellar cells were resuspended in BME/B-27 medium (BME medium plus B-27 supplement, both from Gibco) supplemented with penicillin/streptomycin (Gibco) to a cell density of 5×10^5 cells/ml. Then 250 μl of this cell suspension was plated on the dishes. AP-YF or AP-Scramble peptides dissolved in Hank's Balanced Salt Solution (Gibco) were added to the plated cells at final concentration of 30 μg/ml. Cultures were incubated at 37° C. for 24 hrs in 5% CO2. These cultures were fixed with 4% paraformaldehyde and images were collected on a Zeiss Axiovert 100TV microscope using a 100× plan neofluor objective. Neurite outgrowth measurements were performed using NIH image software. Data was expressed as average neurite length in μm (+/− standard deviation). P-values were determined using Student's t-test analysis. Microsoft Excel was used to plot the data as % neurites of length greater than Xpm versus neurite length X (in μm).
Mouse cerebellar granular neurons were plated on tissue culture dishes coated with chick Ng-CAM, a chick homolog of L1-CAM, or on tissue culture dishes coated with mouse laminin. The Ng-CAM substrate interacts with cell-surface L1-CAM, while laminin substrate interacts with cell surface integrins and therefore serves as the negative control. These cultures were treated with either AP-YF or AP-Scramble peptides. After 24 hours of culture, the neurons were fixed and neurite outgrowth lengths w-ere measured by NIH image software degree (in μm).

[2] = biological target: T1, L1-CAM-ankyrin interactions (Homo sapiens, UniProt Q01484); assay: Ankyrin recruitment assay: ankyrinB co-localization with L1-CAM at the membrane of transfected 293 cells; format: cell-based; conditions: 1.4 μg/ml peptide for 30 minutes
T1 construct: expressed in transfected cells; host or cells: human kidney 293 cells
T1 sequence (Q01484 whole entry): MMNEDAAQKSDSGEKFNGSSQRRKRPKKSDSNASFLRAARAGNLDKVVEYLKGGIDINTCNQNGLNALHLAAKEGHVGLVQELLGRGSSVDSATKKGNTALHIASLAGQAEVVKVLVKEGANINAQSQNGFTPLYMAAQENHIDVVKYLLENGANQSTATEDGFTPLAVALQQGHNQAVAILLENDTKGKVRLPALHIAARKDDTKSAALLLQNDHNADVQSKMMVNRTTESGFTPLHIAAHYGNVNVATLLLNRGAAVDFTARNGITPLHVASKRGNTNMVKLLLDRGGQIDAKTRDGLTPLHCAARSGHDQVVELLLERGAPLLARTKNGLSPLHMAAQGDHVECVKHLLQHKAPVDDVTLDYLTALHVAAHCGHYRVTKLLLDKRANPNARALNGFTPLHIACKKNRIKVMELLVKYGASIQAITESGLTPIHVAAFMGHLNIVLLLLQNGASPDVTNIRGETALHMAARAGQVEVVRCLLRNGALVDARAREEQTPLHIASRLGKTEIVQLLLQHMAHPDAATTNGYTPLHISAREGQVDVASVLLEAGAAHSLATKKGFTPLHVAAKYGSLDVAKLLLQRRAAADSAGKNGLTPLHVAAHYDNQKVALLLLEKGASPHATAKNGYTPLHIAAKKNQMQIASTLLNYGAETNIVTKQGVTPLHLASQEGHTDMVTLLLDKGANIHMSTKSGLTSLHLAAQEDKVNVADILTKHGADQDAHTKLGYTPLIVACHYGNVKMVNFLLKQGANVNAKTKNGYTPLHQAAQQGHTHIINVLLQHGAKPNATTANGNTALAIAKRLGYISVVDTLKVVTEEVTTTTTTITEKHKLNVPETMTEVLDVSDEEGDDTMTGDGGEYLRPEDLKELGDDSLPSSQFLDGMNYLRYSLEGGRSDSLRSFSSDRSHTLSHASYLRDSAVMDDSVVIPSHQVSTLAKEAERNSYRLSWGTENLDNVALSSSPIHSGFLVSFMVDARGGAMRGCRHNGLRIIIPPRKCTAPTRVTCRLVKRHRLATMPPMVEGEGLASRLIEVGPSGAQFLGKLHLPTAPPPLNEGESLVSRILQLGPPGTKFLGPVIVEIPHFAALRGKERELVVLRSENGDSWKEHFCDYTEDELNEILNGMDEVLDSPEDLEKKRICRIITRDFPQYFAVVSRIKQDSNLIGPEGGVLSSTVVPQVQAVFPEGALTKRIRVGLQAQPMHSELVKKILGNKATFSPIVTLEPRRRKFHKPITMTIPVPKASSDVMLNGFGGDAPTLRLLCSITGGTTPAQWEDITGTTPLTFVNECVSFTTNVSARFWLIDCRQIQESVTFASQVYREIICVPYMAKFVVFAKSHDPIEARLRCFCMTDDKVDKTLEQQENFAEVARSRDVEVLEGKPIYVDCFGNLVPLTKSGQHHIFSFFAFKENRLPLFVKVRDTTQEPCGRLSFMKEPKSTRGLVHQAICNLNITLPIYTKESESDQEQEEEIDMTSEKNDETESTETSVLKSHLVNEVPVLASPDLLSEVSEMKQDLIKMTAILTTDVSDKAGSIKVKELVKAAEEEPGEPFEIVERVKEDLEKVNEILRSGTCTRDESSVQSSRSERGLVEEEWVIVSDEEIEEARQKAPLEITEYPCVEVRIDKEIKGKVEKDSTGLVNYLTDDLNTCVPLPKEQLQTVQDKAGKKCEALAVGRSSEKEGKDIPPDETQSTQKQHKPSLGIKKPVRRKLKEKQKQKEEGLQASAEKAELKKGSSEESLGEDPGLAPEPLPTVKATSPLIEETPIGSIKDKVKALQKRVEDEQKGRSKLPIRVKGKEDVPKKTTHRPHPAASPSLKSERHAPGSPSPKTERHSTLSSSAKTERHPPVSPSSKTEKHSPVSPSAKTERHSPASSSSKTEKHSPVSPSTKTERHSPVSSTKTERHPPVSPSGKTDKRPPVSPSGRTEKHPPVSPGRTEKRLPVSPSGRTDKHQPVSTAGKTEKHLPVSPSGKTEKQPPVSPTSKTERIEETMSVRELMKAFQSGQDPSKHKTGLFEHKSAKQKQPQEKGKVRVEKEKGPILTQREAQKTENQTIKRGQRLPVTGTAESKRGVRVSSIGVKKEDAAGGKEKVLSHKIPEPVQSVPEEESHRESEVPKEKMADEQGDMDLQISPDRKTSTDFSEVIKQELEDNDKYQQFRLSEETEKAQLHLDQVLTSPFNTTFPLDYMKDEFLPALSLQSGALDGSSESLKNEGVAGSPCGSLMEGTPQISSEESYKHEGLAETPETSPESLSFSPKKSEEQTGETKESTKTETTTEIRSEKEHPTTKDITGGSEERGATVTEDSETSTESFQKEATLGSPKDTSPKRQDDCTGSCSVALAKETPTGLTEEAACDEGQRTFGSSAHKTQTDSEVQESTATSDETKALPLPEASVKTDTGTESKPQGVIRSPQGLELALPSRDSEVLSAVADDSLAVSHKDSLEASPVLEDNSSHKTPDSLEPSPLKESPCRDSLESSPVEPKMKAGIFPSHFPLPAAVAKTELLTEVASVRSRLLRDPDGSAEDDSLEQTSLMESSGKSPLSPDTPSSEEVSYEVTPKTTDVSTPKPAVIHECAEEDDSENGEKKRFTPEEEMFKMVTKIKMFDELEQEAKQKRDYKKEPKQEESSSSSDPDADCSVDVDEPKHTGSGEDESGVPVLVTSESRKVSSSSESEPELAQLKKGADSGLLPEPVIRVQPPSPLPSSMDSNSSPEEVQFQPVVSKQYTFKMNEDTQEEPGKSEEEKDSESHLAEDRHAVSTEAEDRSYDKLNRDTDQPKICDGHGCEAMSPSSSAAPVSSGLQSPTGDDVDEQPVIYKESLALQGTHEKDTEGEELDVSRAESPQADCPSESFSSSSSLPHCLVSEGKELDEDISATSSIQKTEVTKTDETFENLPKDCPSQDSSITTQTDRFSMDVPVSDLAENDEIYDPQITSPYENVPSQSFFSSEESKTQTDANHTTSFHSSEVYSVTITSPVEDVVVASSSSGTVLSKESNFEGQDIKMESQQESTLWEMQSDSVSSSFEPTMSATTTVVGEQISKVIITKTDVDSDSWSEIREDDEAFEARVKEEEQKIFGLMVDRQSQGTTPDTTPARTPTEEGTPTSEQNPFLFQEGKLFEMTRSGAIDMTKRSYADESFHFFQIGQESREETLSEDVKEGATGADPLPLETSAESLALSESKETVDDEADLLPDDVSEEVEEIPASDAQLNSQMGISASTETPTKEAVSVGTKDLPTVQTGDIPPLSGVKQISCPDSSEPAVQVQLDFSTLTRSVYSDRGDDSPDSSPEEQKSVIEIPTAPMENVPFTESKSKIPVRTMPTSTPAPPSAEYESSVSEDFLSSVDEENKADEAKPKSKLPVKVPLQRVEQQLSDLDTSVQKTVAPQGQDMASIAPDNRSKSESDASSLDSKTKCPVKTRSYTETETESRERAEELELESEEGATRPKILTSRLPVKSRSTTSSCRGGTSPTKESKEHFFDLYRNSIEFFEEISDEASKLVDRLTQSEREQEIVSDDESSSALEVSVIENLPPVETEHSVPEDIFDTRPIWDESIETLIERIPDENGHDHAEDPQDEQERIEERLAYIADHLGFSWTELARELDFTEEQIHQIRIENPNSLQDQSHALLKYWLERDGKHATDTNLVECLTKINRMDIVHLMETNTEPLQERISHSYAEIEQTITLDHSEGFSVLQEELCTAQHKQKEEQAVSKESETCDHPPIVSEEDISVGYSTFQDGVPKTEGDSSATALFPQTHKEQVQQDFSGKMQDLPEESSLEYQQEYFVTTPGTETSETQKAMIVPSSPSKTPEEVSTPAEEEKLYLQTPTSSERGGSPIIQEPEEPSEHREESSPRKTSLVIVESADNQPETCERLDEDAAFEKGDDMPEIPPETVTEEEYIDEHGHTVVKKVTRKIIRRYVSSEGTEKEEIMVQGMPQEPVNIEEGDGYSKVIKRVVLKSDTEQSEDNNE
Protocol: Cell culture aid transfection: Human kidney 293 cells were cultured in DMEM medium (Gibco) supplemented with penicillin, streptomycin, L-glutamine, and 10% fetal bovine serum (Hyclone). The pMyc-L1-CAM or pL1-CAM-GFP expression constructs were transfected into cultured human kidney 293 cells using Lipofectamine plus (Invitrogen) according to manufacturer instructions. Cells were cultured for 24-48 hours and then used, or cultured continuously in the presence of 0.5 μg.mL G418 (Gibco) to select for stably transfected cells lines, to generate stable pooled lines of L1-CAM-expressing cells.
In some instances, transfected 293 cells were treated with neural growth factor (NGF) or epidermal growth factor (EGF) to stimulate phosphorylation of tyrosine 1229 (Y1229) of the L1-CAM cytoplasmic domain, and thereby inhibit ankyrin binding. In these cases, cells were treated with 50 ng/mL EGF (Gibco) or 100 ng/mL NGF (Gibco) for 1 hour prior to the assay. […]
Ankyrin and L1-CAM were detected by indirect immunofluorescence in double-labeled confocal sections through cell aggregates to permit the visualization of L1 and ankyrinB at the cell membrane. Expression of myc-L1-CAM was detected using a polyclonal anti-L1-CAM rabbit antibody. […] Ankyrin was detected using a monoclonal anti-ankyrinB mouse antibody (BD PharMingen). […]
Quantification of ankyrin immunolocalization: Confocal micrographs were then used to quantify the degree of ankyrin localization to the cell membrane of myc-L1-CAM expressing cells. Images were analyzed using ImageJ (NIH) under Macintosh OSX. The method for quantifying ankyrinB localization to the membrane uses densitometry of a line scan perpendicular to and crossing a cell-cell junction. […]
The densitometry intensity profile of the scanned line was used to determine a minimum ankyrinB signal for comparison to the value of the ankyrinB signal at the point where the maximum signal in the L1-CAM channel occurs. […] Minima were determined from the regions of the line overlapping the cytoplasm of either of the two cells. […]

Row | Sequence | neurite extension above control levels ([1]; on Ng-CAM substrate, 24 h, vs AP-Scramble) [%] | average neurite length ([1]; on Ng-CAM substrate) [μm] | axon extension on laminin ([1]; on laminin substrate, 24 h, vs AP-Scramble) | ankyrin co-localization with L1-CAM at the cell membrane (L1-CAM-ankyrin interactions) [2]
1 | RQIKIWFQNRRMKWKKQFNEDGSFIGQF [AP-YF] | 55 | 32 | not significantly affected | inhibited L1-CAM-ankyrin interactions
2 | RQIKIWFQNRRMKWKKFQGIFSGDENFQ [AP-Scramble] | – | 21 | – | no detectible effects

From patent publication US7737250B2, “Peptides for treating axonal damage, inhibition of neurotransmitter release and pain transmission, and blocking calcium influx in neurons” (Mount Sinai School of Medicine of New York University, priority 2003, dated 2010)
